According to patent publication US20210122739A1, “NOVEL SULFONAMIDE CARBOXAMIDE COMPOUNDS” (Inflazome Limited, priority 2017, published 2021):

Assays:
NLRP3 [1] = target: T1, NLRP3 (Homo sapiens, UniProt Q96P20); assay: THP-1 cells pyroptosis assay; assay type: cell-based; parameters: Seed THP-1 cells (25,000 cells/well) containing 1.0 μg/ml LPS; host or cells: THP-1 cells, LPS-primed, nigericin-stimulated; conditions: 1.0 μg/ml LPS, nigericin 5 μM, resazurin readout
Text: It is well established that the activation of NLRP3 leads to cell pyroptosis and this feature plays an important part in the manifestation of clinical disease (Yan-gang Liu et al., Cell Death & Disease, 2017, 8(2), e2579; Alexander Wree et al., Hepatology, 2014, 59(3), 898-910; Alex Baldwin et al., Journal of Medicinal Chemistry, 2016, 59(5), 1691-1710; Ema Ozaki et al., Journal of Inflammation Research, 2015, 8, 15-27; Zhen Xie & Gang Zhao, Neuroimmunology Neuroinflammation, 2014, 1(2), 60-65; Mattia Cocco et al., Journal of Medicinal Chemistry, 2014, 57(24), 10366-10382; T. Satoh et al., Cell Death & Disease, 2013, 4, e644). Therefore, it is anticipated that inhibitors of NLRP3 will block pyroptosis, as well as the release of pro-inflammatory cytokines (e.g. IL-1β) from the cell.
THP-1 cells (ATCC #TIB-202) were grown in RPMI containing L-glutamine (Gibco #11835) supplemented with 1 mM sodium pyruvate (Sigma #S8636) and penicillin (100 units/ml)/streptomycin (0.1 mg/ml) (Sigma #P4333) in 10% Fetal Bovine Serum (FBS) (Sigma #F0804). The cells were routinely passaged and grown to confluency (˜10^6 cells/ml). On the day of the experiment, THP-1 cells were harvested and resuspended into RPMI medium (without FBS). The cells were then counted and viability (>90%) checked by Trypan blue (Sigma #T8154). Appropriate dilutions were made to give a concentration of 625,000 cells/ml. To this diluted cell solution was added LPS (Sigma #L4524) to give a 1 μg/ml Final Assay Concentration (FAC). 40 μl of the final preparation was aliquoted into each well of a 96-well plate. The plate thus prepared was used for compound screening.
The following method step-by-step assay was followed for compound screening. • 1. Seed THP-1 cells (25,000 cells/well) containing 1.0 μg/ml LPS in 40 μl of RPMI medium (without FBS) in 96-well, black walled, clear bottom cell culture plates coated with poly-D-lysine (VWR #734-0317) • 2. Add […] compound (8 points half-log dilution, with 10 μM top dose) or vehicle (DMSO 0.1% FAC) to the appropriate wells • 3. Incubate for 3 hrs at 37° C. in 5% CO2 • 4. Add 5 μl nigericin (Sigma #N7143) (FAC 5 μM) to all wells • 5. Incubate for 1 hr at 37° C. and 5% CO2 • 6. At the end of the incubation period, spin plates at 300×g for 3 mins and remove supernatant • 7. Then add 50 μl of resazurin (Sigma #R7017) (FAC 100 μM resazurin in RPMI medium without FBS) and incubate plates for a further 1-2 hrs at 37° C. and 5% CO2 • 8. Plates were read in an Envision reader at Ex 560 nm and Em 590 nm • 9. IC50 data is fitted to a non-linear regression equation (log inhibitor vs response-variable slope 4-parameters)

NLRP3 [2] = target: T1, NLRP3; assay: Human whole blood IL1β release assay; assay type: cell-based; parameters: Plate out 80 μl of whole blood containing 1 μg/ml of LPS; from tissue; host or cells: human whole blood from healthy donors, LPS-primed, nigericin-stimulated; conditions: 1 μg/ml LPS, nigericin 10 μM, IL-1β by AlphaLisa, read-out: HWB IC50
Description: For systemic delivery, the ability to inhibit NLRP3 when the compounds are present within the bloodstream is of great importance. For this reason, the NLRP3 inhibitory activity of a number of compounds in human whole blood was investigated in accordance with the following protocol.
Human whole blood in Li-heparin tubes was obtained from healthy donors from a volunteer donor panel. • 1. Plate out 80 μl of whole blood containing 1 μg/ml of LPS in 96-well, clear bottom cell culture plate (Corning #3585) • 2. Add 10 μl compound (8 points half-log dilution with 10 μM top dose) or vehicle (DMSO 0.1% FAC) to the appropriate wells • 3. Incubate for 3 hrs at 37° C., 5% CO2 • 4. Add 10 μl Nigericin (Sigma #N7143) (10 μM FAC) to all wells • 5. Incubate for 1 hr at 37° C., 5% CO2 • 6. At the end of the incubation period, spin plates at 300×g for 5 mins to pellet cells and remove 20 μl of supernatant and add to 96-well v-bottom plates for IL-1β analysis (note: these plates containing the supernatants can be stored at −80° C. to be analysed at a later date) • 7. IL-1β was measured according to the manufacturer protocol (Perkin Elmer-AlphaLisa IL-1 Kit AL220F-5000) • 8. IC50 data is fitted to anon-linear regression equation (log inhibitor vs response-variable slope 4-parameters)

T1 sequence (Q96P20 whole entry): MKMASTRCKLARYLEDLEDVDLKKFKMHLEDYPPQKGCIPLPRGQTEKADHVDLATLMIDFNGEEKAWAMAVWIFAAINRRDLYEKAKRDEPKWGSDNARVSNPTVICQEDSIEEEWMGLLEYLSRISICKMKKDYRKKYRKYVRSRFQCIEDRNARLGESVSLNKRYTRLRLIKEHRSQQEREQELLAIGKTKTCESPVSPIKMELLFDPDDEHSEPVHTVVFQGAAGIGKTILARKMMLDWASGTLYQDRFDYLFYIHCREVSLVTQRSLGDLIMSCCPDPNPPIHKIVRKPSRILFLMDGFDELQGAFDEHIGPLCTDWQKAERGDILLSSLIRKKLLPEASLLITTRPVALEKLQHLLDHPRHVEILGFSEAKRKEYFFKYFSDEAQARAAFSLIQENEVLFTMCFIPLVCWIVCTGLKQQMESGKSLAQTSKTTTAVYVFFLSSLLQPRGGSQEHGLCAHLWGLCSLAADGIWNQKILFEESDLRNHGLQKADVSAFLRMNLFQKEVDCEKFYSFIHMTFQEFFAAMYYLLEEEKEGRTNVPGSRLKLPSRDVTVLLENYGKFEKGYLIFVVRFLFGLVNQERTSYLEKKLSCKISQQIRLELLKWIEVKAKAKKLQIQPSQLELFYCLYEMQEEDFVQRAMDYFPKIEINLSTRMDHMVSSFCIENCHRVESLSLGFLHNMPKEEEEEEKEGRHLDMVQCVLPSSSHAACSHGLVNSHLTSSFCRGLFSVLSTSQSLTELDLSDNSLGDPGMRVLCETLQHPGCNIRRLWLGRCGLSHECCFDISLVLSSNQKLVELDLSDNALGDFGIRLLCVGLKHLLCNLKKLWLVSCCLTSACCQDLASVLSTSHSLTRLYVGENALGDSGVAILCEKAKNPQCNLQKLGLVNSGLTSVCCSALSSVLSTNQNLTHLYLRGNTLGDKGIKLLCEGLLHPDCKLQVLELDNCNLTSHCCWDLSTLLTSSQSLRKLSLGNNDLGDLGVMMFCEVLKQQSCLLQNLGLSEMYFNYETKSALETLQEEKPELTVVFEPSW

SMILES | IC50 (NLRP3 [1]) [nM] | IC50 (NLRP3 [2]) [nM]
COc1cc(-c2ccc3c(c2NC(=O)NS(=O)(=O)c2ccn(C(C)(C)C(=O)N(C)C)n2)CCC3)ccn1 [Example 84] | < 40 | < 400
CC(C)c1cc(F)cc(C(C)C)c1NC(=O)NS(=O)(=O)c1cc(C(=O)N(C)C(C)C)n(C)n1 [Example 47, 3-(N-((4-Fluoro-2,6-diisopropylphenyl)carbamoyl)sulfamoyl)-N-isopropyl-N,1-dimethyl-1H-pyrazole-5-carboxamide] | 40 to 160 | 400 to 800
CC(C)c1cccc(C(C)C)c1NC(=O)NS(=O)(=O)c1cc(C(=O)N(C)C2CC2)n(C)n1 [Example 43, N-Cyclopropyl-3-(N-((2,6-diisopropylphenyl)carbamoyl)sulfamoyl)-N,1-dimethyl-1H-pyrazole-5-carboxamide] | 40 to 160 | 800 to 1600
CC(C)c1cc(F)cc(-c2cncnc2)c1NC(=O)NS(=O)(=O)c1cc(C(=O)N(C)C)n(C)n1 [Example 42, 3-(N-((4-Fluoro-2-isopropyl-6-(pyrimidin-5-yl)phenyl)carbamoyl)sulfamoyl)-N,N,1-trimethyl-1H-pyrazole-5-carboxamide] | 160 to 640 | < 400
COc1cc(-c2ccc3c(c2NC(=O)NS(=O)(=O)c2cc(C(=O)N(C)C)n(C)n2)CCC3)ccn1 [Example 82, 3-(N-((5-(2-Methoxypyridin-4-yl)-2,3-dihydro-1H-inden-4-yl)carbamoyl)sulfamoyl)-N,N,1-trimethyl-1H-pyrazole-5-carboxamide] | < 40 | < 400
CC(C)N(C)C(=O)c1cc(S(=O)(=O)NC(=O)Nc2c3c(cc4c2CCC4)CCC3)nn1C [Example 64, 3-(N-((1,2,3,5,6,7-Hexahydro-s-indacen-4-yl)carbamoyl)sulfamoyl)-N-isopropyl-N,1-dimethyl-1H-pyrazole-5-carboxamide] | 40 to 160 | 1600 to 3200
CC(C)c1cc(Cl)cc(C(C)C)c1NC(=O)NS(=O)(=O)c1cc(C(=O)N(C)CCO)n(C)n1 [Example 74, 3-(N-((4-Chloro-2,6-diisopropylphenyl)carbamoyl)sulfamoyl)-N-(2-hydroxyethyl)-N,1-dimethyl-1H-pyrazole-5-carboxamide] | 40 to 160 | 800 to 1600
CNC(=O)Cn1ccc(S(=O)(=O)NC(=O)Nc2c3c(cc4c2CCC4)CCC3)n1 [Example 2, 2-(3-(N-((1,2,3,5,6,7-Hexahydro-s-indacen-4-yl)carbamoyl)sulfamoyl)-1H-pyrazol-1-yl)-N-methylacetamide] | 160 to 640 | 1600 to 3200
CN(CC#N)C(=O)c1cc(S(=O)(=O)NC(=O)Nc2c3c(cc4c2CCC4)CCC3)nn1C [Example 53, N-(Cyanomethyl)-3-(N-((1,2,3,5,6,7-hexahydro-s-indacen-4-yl)carbamoyl)sulfamoyl)-N,1-dimethyl-1H-pyrazole-5-carboxamide] | 160 to 640 | 800 to 1600
CNC(=O)c1cc(S(=O)(=O)NC(=O)Nc2c(C(C)C)cc(F)cc2C(C)C)nn1C [Example 50, 3-(N-((4-Fluoro-2,6-diisopropylphenyl)carbamoyl)sulfamoyl)-N,1-dimethyl-1H-pyrazole-5-carboxamide] | 160 to 640 | < 400

Next, values leading:

IC50 (NLRP3 [1]) [nM] | IC50 (NLRP3 [2]) [nM] | SMILES
160 to 640 | 1600 to 3200 | CN(CCCO)C(=O)c1cc(S(=O)(=O)NC(=O)Nc2c3c(cc4c2CCC4)CCC3)nn1C [Example 18, 3-(N-((1,2,3,5,6,7-Hexahydro-s-indacen-4-yl)carbamoyl)sulfamoyl)-N-(3-hydroxypropyl)-N,1-dimethyl-1H-pyrazole-5-carboxamide]
40 to 160 | 400 to 800 | CC(=O)N(C)Cc1cc(S(=O)(=O)NC(=O)Nc2c3c(cc4c2CCC4)CCC3)nn1C(C)C [Example 29, N-((3-(N-((1,2,3,5,6,7-Hexahydro-s-indacen-4-yl)carbamoyl)sulfamoyl)-1-isopropyl-1H-pyrazol-5-yl)methyl)-N-methylacetamide]
160 to 640 | < 400 | Cn1nc(S(=O)(=O)NC(=O)Nc2c3c(cc4c2CCC4)CCC3)cc1C(=O)N(CCO)CCO [Example 15, 3-(N-((1,2,3,5,6,7-Hexahydro-s-indacen-4-yl)carbamoyl)sulfamoyl)-N,N-bis(2-hydroxyethyl)-1-methyl-1H-pyrazole-5-carboxamide]
40 to 160 | 800 to 1600 | CN(C)C(=O)C(C)(C)n1ccc(S(=O)(=O)NC(=O)Nc2c3c(cc4c2CCC4)CCC3)n1 [Example 83, 2-(3-(N-((1,2,3,5,6,7-Hexahydro-s-indacen-4-yl)carbamoyl)sulfamoyl)-1H-pyrazol-1-yl)-N,N,2-trimethylpropanamide]
160 to 640 | 3200 to 10000 | CN(C)C(=O)Cn1ccc(S(=O)(=O)NC(=O)Nc2c3c(cc4c2CCC4)CCC3)n1 [Example 1, 2-(3-(N-((1,2,3,5,6,7-Hexahydro-s-indacen-4-yl)carbamoyl)sulfamoyl)-1H-pyrazol-1-yl)-N,N-dimethylacetamide]
640 to 2560 | 1600 to 3200 | CCN(C)C(=O)c1cc(S(=O)(=O)NC(=O)Nc2c(C(C)C)cccc2C(C)C)nn1C [Example 56, 3-(N-((2,6-Diisopropylphenyl)carbamoyl)sulfamoyl)-N-ethyl-N,1-dimethyl-1H-pyrazole-5-carboxamide]
160 to 640 | 1600 to 3200 | CNC(=O)c1cc(S(=O)(=O)NC(=O)Nc2c(C(C)C)cc(Cl)cc2C(C)C)nn1C [Example 32, 3-(N-((4-Chloro-2,6-diisopropylphenyl)carbamoyl)sulfamoyl)-N,1-dimethyl-1H-pyrazole-5-carboxamide]
40 to 160 | 1600 to 3200 | Cn1nc(S(=O)(=O)NC(=O)Nc2c3c(cc4c2CCC4)CCC3)cc1C(=O)N1CCC1 [Example 54, 5-(Azetidine-1-carbonyl)-N-((1,2,3,5,6,7-hexahydro-s-indacen-4-yl)carbamoyl)-1-methyl-1H-pyrazole-3-sulfonamide]
160 to 640 | < 400 | CC(C)c1cccc(C(C)C)c1NC(=O)NS(=O)(=O)c1cc(C(=O)N2CCC2)n(C)n1 [Example 51, 5-(Azetidine-1-carbonyl)-N-((2,6-diisopropylphenyl)carbamoyl)-1-methyl-1H-pyrazole-3-sulfonamide]
640 to 2560 | 800 to 1600 | CC(C)c1cccc(C(C)C)c1NC(=O)NS(=O)(=O)c1cc(C(=O)N2CC(F)C2)n(C)n1 [Example 39, N-((2,6-Diisopropylphenyl)carbamoyl)-5-(3-fluoroazetidine-1-carbonyl)-1-methyl-1H-pyrazole-3-sulfonamide]
